Data from US6884907B2, “Hydroxamic acids and acyl hydroxamines as naaladase inhibitors” (Guilford Pharmaceuticals Inc., priority 2001, dated 2005).

Tests used:
[1] = tested on: rats with transected optic nerve; assay: Optic nerve transection (optic nerve fiber counting); assay type: in vivo, Brown Norway rats (Rattus norvegicus); details: 2 weeks after transection
Description: All experiments complied with the Association for Research in Vision and Ophthalmology Statement for the Use of Animals in Ophthalmic and Vision Research. 82 male Brown Norway rats (Rattus norvegicus), each weighing approximately 250 gm, were treated using procedures approved by the Animal Care Committee of the Johns Hopkins University School of Medicine. The rats were housed with a 12 hour light/12 hour dark cycle and fed ad libitum.
OPTIC NERVE TRANSECTION: The optic nerve was transected unilaterally in 26 rats under intraperitoneal pentobarbital anesthesia. The conjunctiva was opened with scissors and the optic nerve exposed by traction on extraocular muscles. […]
The area of the optic nerve cross-section was measured by outlining its outer border at 10× magnification on an image analysis system (Universal Imaging Corp., Westchester, Pa.) with Synsys digital camera and Metamorph software. Three area measurements were taken and the mean value was determined. […] These were edited to eliminate non-neural objects and the size of each axon internal to the myelin sheath (its minimum diameter) and the density of axons/square mm were calculated for each image and nerve. […] The number of axons counted among the 10 images was an approximately 20% sample of the 80-90,000 axons in normal rat nerves. […]

[2] = tested on: Transgenic HD mice of the N171-82Q strain; assay: Transgenic mouse model of Huntington's disease: behavioral testing (rotarod, locomotion); assay type: in vivo
Description: Transgenic HD mice of the […]-[…] strain and non-transgenic littermates were treated with NAALADase inhibitor Compound B (30 mg/kg) or a vehicle from 10 weeks of age. The mice were placed on a rotating rod (“rotarod”). The length of time at which the mouse fell off the rotarod was recorded as a measure of motor coordination. […] The treatment with Compound B had no effect on the rotarod performance of normal non-HD mice. The total distance traveled by the mice was also recorded as a measure of overall locomotion.

[3] = tested on: transgenic HD mice (N171-82Q); assay: Transgenic mouse model of Huntington's disease: survival; assay type: in vivo
Description: The effects of Compound B and vehicle on the survival of transgenic HD mice (N171-82Q) were evaluated. Thirteen mice (six male and seven female) were assigned to the Compound B treatment group, and fourteen mice (six male and eight female) were assigned to the vehicle treatment group. Treatment was continued until all the mice died.

TGF-β [4] = assay: Effect of NAALADase inhibition on TGF-β in in vivo ischemia model (MCAO); details: MCAO rats
Description: The effect of TGF-β neutralizing antibodies on the neuroprotective effect of Compound C was also studied in rats following MCAO.

[5] = tested on: rats with sciatic nerve ligation; assay: Neuropathic pain in chronic constriction injury (CCI) model; assay type: in vivo; details: 50 mg/kg i.p. daily starting 10 days post surgery, versus vehicle, FIG. 8
Description: Sciatic nerve ligation, consisting of 4 ligatures tied loosely around the sciatic nerve at 1 mm intervals proximal to the nerve trifurcation, was performed on rats. […] The rats were habituated to a Hargreaves apparatus. An infrared heat source was directed onto the […] surface of each rat's hindpaws and the time taken for the rat to withdraw its paws was noted. The difference in scores between the latency of the response for the paw on the operated side versus the paw on the unoperated control side was determined. The rats received either Compound C (50 mg/kg i.p. daily) or a vehicle starting 10 days post surgery. […] Normal (unoperated) rats had approximately equal latencies for both paws. This effect was significant starting at 11 days of drug treatment and persisted through to the end of the study (for 21 days of daily dosing).

TGF-β [6] = assay: Effect of NAALADase inhibition on TGF-β in in vitro ischemia model; assay type: cell-based; details: ischemic cell cultures
Description: A NAALADase inhibitor, Compound C, was added to ischemia cell cultures to determine its effect on TGF-β levels during stroke.
TGF-β neutralizing antibodies were then added to the ischemic cell cultures.

[7] = tested on: STZ-induced diabetic rats; assay: Neuropathic pain in STZ model (thermal nociception, Hargreaves apparatus); assay type: in vivo, Male Sprague-Dawley rats; details: 10 mg/kg i.p. daily, treatment started 45 days post-STZ, FIGS. 7A and 7B
Description: Male Sprague-Dawley rats (200-225 g) were rendered diabetic by intravenous administration of streptozotocin (“STZ”, 70 mg/kg in phosphate buffered saline). Diabetic animals were divided into five groups: one group receiving Compound A (10 mg/kg or 1 mg/kg), Compound D (10 mg/kg or 1 mg/kg) or vehicle. Another group of animals (non-STZ treated) served as non-diabetic controls. Drug/vehicle treatment was started in diabetic animals 45 days post-STZ administration. STZ-induced diabetic rats were tested for sensitivity to a heat source as soon as blood glucose levels rose to 320 mg/dl or above (30 days post STZ). The rats were then acclimated to a Hargreaves apparatus and thermal nociception was monitored using an infrared heat source directed into the dorsal surface of the hindpaw, and the time taken for the animal to remove its paw noted to the nearest 0.1 seconds (see Hargreaves et al., supra, for detailed experimental method). The intensity of the beam source was adjusted such that the mean latency for control animals (non-STZ treated) was approximately 10 seconds. Each animal was tested 8 times and the mean difference score (between mean non-diabetic control latency and mean diabetic latency) are graphically presented in FIGS. 7A and 7B.

BB/W diabetic rats = assay: Progression of neuropathic pain and nerve conduction deficits in BB/W model; assay type: in vivo, Male BB/W rats
Description: Male BB/W rats (BRI, Mass) spontaneously develop a cell mediated autoimmune destruction of pancreatic B cells, resulting in onset of insulin-dependent (Type I) diabetes (Guberski 1994). […] This renders them valuable for experimental trials of new compounds for future treatments of this major disorder. In the present study, Compound D and Compound A were examined for their ability to alter the progression of diabetic neuropathy. The rats received daily injection of Compound D or Compound A (10 mg/kg i.p.) or vehicle, starting at the onset of diabetes (hyperglycemia) and up to 6 months thereafter. Another group of non-diabetic rats also receiving vehicle were tested. All animals were continuously monitored for body weight, urine volume, blood sugar and glycated haemoglobin. In the first month of the study, all animals were tested for thermal nociception in a Hargreaves apparatus, weekly. After the first month this was done biweekly and then monthly. The testing consists of directing an infrared heat source onto the dorsal surface of the rat hindpaw and noting the time taken for the animal to remove its paw (see Hargreaves et al., supra, for a description of the experimental method). Each animal was tested 8 times and the mean withdrawal latency noted.
Nerve conduction velocity was also measured every two weeks through the first eight weeks of treatment and every month thereafter through to the six months of treatment (see De Koning et al., Peptides, Vol. 8, No. 3, pp. 415-22 (1987) for a description of the experimental method). […] This was apparent starting at 8 weeks of treatment and persisted to a similar degree through to the six month termination point of the study.

STZ-diabetic animals = assay: Diabetic neuropathy in STZ model (nerve conduction velocity); assay type: in vivo, rats; details: 10 mg/kg daily
Description: Motor and sensory nerve conduction velocity was also measured in STZ-diabetic animals after 4, 8 and 12 weeks of treatment (see De Koning et al., supra, for a description of the experimental method). Briefly, stimulating needle electrodes were inserted close to the sciatic and tibial nerves with recording electrodes being placed subcutaneously over the distal foot muscles, in anesthetized rats.

transgenic G1H mice = assay: Onset of ALS in SOD transgenic mice model of FALS; assay type: in vivo
Description: The effect of NAALADase inhibitors on the onset of ALS was tested using the superoxide dismutase (“SOD”) transgenic mice model of familial Amyotrophic Lateral Sclerosis (“FALS”), which is detailed in Gurney, M., Annals of Neurology (1996) 39:147-157, and otherwise well known in the art. One month old transgenic G1H mice were treated with daily intraperitoneal injections of a vehicle (50 mM HEPES-buffered saline) or a NAALADase inhibitor (50 mg/kg of Compound A). Clinical symptoms of the mice were monitored daily. The onset of clinical disease was scored by examining each mouse for its shaking of limbs when suspended in the air by its tail, cross spread of spinal reflexes, hindlimb paralysis, body weight and wheel running activity.

## O=C(O)CCC(CCCS)C(=O)O (stereo not shown) [Compound B, 2-(3-sulfanylpropyl)pentanedioic acid]
[1]
  remaining axons relative to saline-treated rats: twice
[2]; normal non-HD mice, 30 mg/kg
  rotarod performance: no effect
[2]; transgenic HD mice, 30 mg/kg from 10 weeks of age, versus vehicle, FIG. 31
  rotarod performance (time on rotarod): stayed longer on the rotarod
[3]; all treated transgenic HD mice, vehicle 158.5 days, p-value=0.07, FIG. 33
  median survival time: 184 days
[3]; female transgenic HD mice versus vehicle, p-value=0.03, FIG. 35
  survival time: significantly prolonged survival time

## O=C(O)CCC(CP(=O)(O)O)C(=O)O (stereo not shown) [Compound C, 2-(phosphonomethyl)pentanedioic acid]
TGF-β [4]; FIG. 5
  neuroprotective effect in presence of TGF-β neutralizing antibodies: significantly attenuated the neuroprotective effect
TGF-β [4]; during occlusion and reperfusion, microdialysis, FIG. 6
  TGF-β1 levels: significant rise
[5]
  difference scores between the two paws (withdrawal latency): dramatically normalized
TGF-β [6]; FIG. 1
  TGF-β1 concentration: increased concentrations
TGF-β [6]; FIG. 2
  TGF-β2 concentration: increased concentrations
TGF-β [6]; FIG. 3
  neuroprotective effect in presence of TGF-β neutralizing antibodies: blocked the neuroprotective effect
TGF-β [6]; FIG. 4
  neuroprotective effect in presence of FGF antibody: did not block the neuroprotective effect

## O=C(O)CCC(CP(=O)(O)Cc1c(F)c(F)c(F)c(F)c1F)C(=O)O (stereo not shown) [Compound A, 2-[[(2,3,4,5,6-pentafluorobenzyl)hydroxyphosphinyl]methyl]pentanedioic acid]
[7]
  hyperalgesic response (withdrawal latency difference score): completely reversed
[1]
  remaining axons relative to saline-treated rats: 3 times
BB/W diabetic rats; 10 mg/kg daily, versus diabetic vehicle controls, from 8 weeks to six months, FIG. 12
  nerve conduction velocity: significantly less severe nerve conduction deficits
BB/W diabetic rats; 10 mg/kg i.p. daily, versus diabetic vehicle-treated rats, from 4 weeks through six months of treatment, FIG. 11
  withdrawal latency: longer withdrawal latencies
STZ-diabetic animals; after 8 weeks, FIG. 9B
  sensory nerve conduction velocity: significant improvement
STZ-diabetic animals; after 12 weeks, FIG. 9A
  motor nerve conduction velocity: significant improvement
Transgenic G1H mice; Study 1, 50 mg/kg daily i.p.
  Difference in disease onset (treated versus vehicle): 32
Transgenic G1H mice; Study 1, 50 mg/kg daily i.p., vehicle 189
  Disease Onset For Compound A Treated Mice: 221 days
Transgenic G1H mice; Study 2, 50 mg/kg daily i.p.
  Difference in disease onset (treated versus vehicle): 25
Transgenic G1H mice; Study 2, 50 mg/kg daily i.p., vehicle 141
  Disease Onset For Compound A Treated Mice: 166 days
